Data as given in patent publication US20240285539A1, “PROTECTIVE COATING FOR MOISTURE SENSITIVE PHARMACEUTICAL COMPOSITIONS” (R.P. Scherer Technologies, LLC, priority 2021, published 2024).

Experiment: Solubility, hygroscopicity and moisture sensitivity of AKST-4290 API
Format: physicochemical
Source text: Applicant has been able to prevent degradation utilizing the wax coating process described herein. This technique reduced the coating time and limited water uptake of core tablets improving impurity profile at T-0.
Specifically, the wax was applied as a sub-coat to the core tablets. In the case of AKST-4290, one of the purposes of this wax coat was to protect the API in the tablets from moisture. […] Although the relative humidity can be controlled during the upstream process of creating the tablet, this cannot be achieved in a coating process with aqueous solutions.

- Hygroscopicity of API (in words): highly hygroscopic
- Solubility of API (in words): highly soluble
Structure (SMILES): Cc1cc(C(=O)N(C)C)cc(NC(=O)[C@H]2CCC(=O)N2C2CCN(Cc3ccc(Cl)c(C)c3)CC2)n1 [AKST-4290]
- Stability on exposure to humidity (relative humidity over 40%, even for a couple of minutes): undergoes both physical and chemical changes
